Where a SMILES comes first, the peptide text is derived from it. [ ]: non-standard residue; d: D form. 2Thi = N[C@@H](Cc1cccs1)C(=O)O; Aib = CC(C)(N)C(=O)O
How the values were obtained:
[1] = system: proteases secreted by A. baumannii ATCC 19606; assay: in vitro; conditions: Acinetobacter baumannii, A. baumannii ATCC 19606 culture supernatant, pH 8
Procedure, shortened: (§1)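 Cell-free culture supernatants (overnight, 37°C; MH broth for bacteria, 2% tryptone/2% dextrose for yeast) were centrifuged, adjusted to pH 8.0 and 0.22 μm filtered. Peptides at 0.5 mg/mL were incubated in supernatant 24 h at 37°C; remaining intact peptide measured by RP-HPLC, with peptide-free supernatant as negative control.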

[2] = system: proteases secreted by C. albicans ATCC 10231; assay: in vitro; conditions: C. albicans ATCC 10231 culture supernatant (2% tryptone/2% dextrose), pH 8.0, 0.22 μm filtered; peptide 0.5 mg/mL; 37°C, 24 h; RP-HPLC
Procedure, shortened: as §1

[3] = system: proteases secreted by P. aeruginosa ATCC 27853; assay: in vitro; conditions: Pseudomonas aeruginosa, P. aeruginosa ATCC 27853 culture supernatant, pH 8
Procedure, shortened: as §1

[4] = system: all of the bacterial and fungal supernatants tested; conditions: pH 8.0, peptide 0.5 mg/mL, 37°C, 24 h, RP-HPLC
Description: The stabilities of the peptides toward proteases secreted by E. coli ATCC 25922, P. aeruginosa ATCC 27853, A. baumannii ATCC 19606, S. aureus ATCC 25923, and C. albicans ATCC 10231 were also examined. Microbial supernatants were prepared by resuspending single colonies of each strain in 20 mL of an appropriate culture medium followed by incubation at 37°C overnight. MH broth and 2% tryptone/2% dextrose were used as the culture media for bacteria and yeast, respectively. Each culture was then centrifuged at 12,000 × g for 10 min and the supernatant was adjusted to pH 8.0 with HCl or NaOH and then filtered through a 0.22 μm sterile filter membrane ([Zaet et al., 2017]). The peptides were then dissolved in the filtered supernatants to a concentration of 0.5 mg/mL, and the peptide-free supernatants were used as negative controls. The samples were incubated at 37°C for 24 h in a water bath and then analyzed by RP-HPLC as described above.

[5] = system: BALB/c mice; assay: In vivo acute toxicity, single injection; design: species or system mouse; conditions: monitored 24 h
Description: Six-week-old mice (approximate weight: 18–20 g, SFP grade) were bred and maintained under specific pathogen-free conditions on a 12 h light/dark cycle. The peptides were dissolved in PBS (pH 7.4) and three mice were used for each dose. As a control, colistin was administered in a similar manner. The mice were monitored for 24 h and mice were weighed at the end of the experiment. The procedure was evaluated and approved by the Ethical Committee of Experimental Animals of the Chia Tai Tianqing Pharmaceutical Group in August 2019.
As summarized in Figure 6, a toxicity score was assigned as follows: no abnormalities = without signs; mild depression, poor motility, purple-black tail, and recovery in 1 h = mild signs; serious depression and poor motility even under stimulation = manifest signs; sudden death within 10 min = died of toxic effects.

[6] = system: human plasma proteases
[7] = system: human plasma proteases; assay: in vitro
[8] = Hydrophobicity by RP-HPLC retention time; type: physicochemical
Description: Each peptide was dissolved in ddH2O to a concentration of 0.5 mg/mL and then subjected to RP-HPLC on an analytical Waters XBridge C18 column (length: 250 mm, internal diameter: 4.6 mm) using 0.1% TFA in water as solvent A and 0.1% TFA in acetonitrile as solvent B. The peptides were eluted using a linear gradient as follows: 5%B to 45%B over 20 min, 45%B to 60%B over 2 min, and 60%B to 5%B over 1 min. The flow rate was 1 mL/min and the absorbance was measured at 215 nm. The retention time was recorded for each peptide ([Kim et al., 2005]).
Peptide hydrophobicity, net charge, amphipathic nature, and secondary structure are believed to be important for antimicrobial activity ([Lee et al., 2016]; [Li J. et al., 2017]). Among these, hydrophobicity has been recognized as an important factor to promote hydrophobic interaction with the hydrophobic core of the lipid bilayer, leading to membrane disruption, cytoplasm leakage, and eventual cell death ([Schmidtchen et al., 2014]). However, the actual hydrophobicity in liquid environment has been reported to usually show disagreement with the theoretical mean hydrophobicity ([Kim et al., 2005]). […] More hydrophobic compounds are typically eluted later from the column. […]

[9] = system: P. aeruginosa ATCC 9027; assay: In vivo antibacterial activity, lethal intraperitoneal infection; conditions: BALB/c mice, lethal i.p. dose of P. aeruginosa ATCC 9027, 10 mg/kg i.p. at 1 and 8 h post-infection, n = 10
Description: The in vivo antibacterial activities of the peptides were evaluated in BALB/c mice using P. aeruginosa ATCC 9027 as a test strain. A total of 20 mice (6 weeks old, approximate weight: 18–20 g, SFP grade) were first used to measure the minimal lethal doses (MLD) with 5 mice for each inoculum. Cell numbers of selected strains were determined from the colony numbers from the plate count agar and four inocula (1 × 10^6, 5 × 10^6, 1 × 10^7, and 5 × 10^7 CFU/mouse) were administered via intraperitoneal injection. The minimal lethal dose was determined by measuring the mortality rate after 72 h. BALB/c mice were then injected intraperitoneally with a lethal dose of P. aeruginosa ATCC 9027. […] Colistin (10 mg/kg) was used as a positive control. The survival of the animals was monitored over 7 d.

SMILES	remaining at 24 h, 0.5 mg/mL [1]	Percent of remained peptide amount after incubation (%) [2]	remaining at 24 h, 0.5 mg/mL [3]	original peptide remaining in microbial supernatants [4]	signs of toxicity after intravenous injection ([5]; single i.v. dose 5 mg/kg, three mice)	signs of toxicity after intravenous injection ([5]; single i.v. dose 10 mg/kg, three mice)	degradation products by plasma proteases (LC-MS) [6]	remaining at 8 h, 0.1 mg/mL [7]	remaining at 24 h, 0.1 mg/mL [7]	relative retention time (RRT) with respect to Pep05 ([8]; RP-HPLC retention time of peptide / that of Pep05, C18, acetonitrile/water/TFA)	RT (RP-HPLC retention time, measure of hydrophobicity) ([8]; chromatographic, Waters XBridge C18 250 x 4.6 mm, 0.5 mg/mL in ddH2O, A 0.1% TFA/water, B 0.1% TFA/acetonitrile, 5-45%B over 20 min, 1 mL/min, UV 215 nm)	signs of toxicity after intravenous injection ([5]; single i.v. dose, all tested doses (5, 10, 20 mg/kg), three mice per dose)	survival rate ([9]; after 3 d)	survival rate ([9]; after 7 d)	remaining at 12 h, 0.1 mg/mL [7]
CC(C)C[C@H](NC(=O)[C@H](CC(C)C)NC(=O)[C@@H](CCCCN)NC(=O)[C@@H](CCCCN)NC(=O)[C@H](Cc1ccccc1)NC(=O)[C@H](CC(C)C)NC(=O)[C@@H](CCCNC(=N)N)NC(=O)[C@H](N)CCCCN)C(=O)N[C@H](CCCCN)C(=O)N[C@@H](Cc1ccc(O)cc1)C(=O)N[C@@H](CC(C)C)C(=O)N[C@H](CCCNC(=N)N)C(=O)N[C@H](CCCCN)C(=O)N[C@@H](Cc1ccccc1)C(N)=O [DP06] (H-[dK][dR]LF[dK][dK]LL[dK]YL[dR][dK]F-NH2)	63.5 ± 3.28%	62.07 ± 3.27 %	61.2 ± 6.06%	more than 60%	sudden death within 1 min of injection	sudden death within 1 min of injection	No obvious degradation products	> 90%	> 60%	–	–	–	–	–	–
CC(C)C[C@H](NC(=O)[C@H](Cc1ccc(O)cc1)NC(=O)[C@H](CCCCN)NC(=O)[C@H](CC(C)C)NC(=O)[C@H](CC(C)C)NC(=O)[C@H](CCCCN)NC(=O)[C@H](CCCCN)NC(=O)[C@H](Cc1ccccc1)NC(=O)[C@H](CC(C)C)NC(=O)[C@H](CCCNC(=N)N)NC(=O)C(C)(C)N)C(=O)N[C@@H](CCCNC(=N)N)C(=O)N[C@@H](CCCCN)C(=O)N[C@@H](Cc1cccs1)C(N)=O [UP09] (H-[Aib]RLFKKLLKYLRK[2Thi]-NH2; N-terminus assumed)	–	–	–	–	–	–	–	–	> 30%	1.08	16.606 min	Mild depression and purple-black tails	40%	10%	> 50%

Source: article PMC7688903 (Frontiers in Microbiology, 2020)
